Earlier results as cited in patent US20250195565A1 (Fempharma Europe, LLC, priority 2018, published 2025).

System: human vaginal smooth muscle cells
Conditions: zinc at a tissue level of 20 μM

[Zn] [zinc]
effect on production of extracellular components (collagen, elastin) by the muscle cells: beneficial effect
